Assay results taken from patent publication US10045990B2, “ERBB4 inhibitors and methods of use thereof” (Arizona Board of Regents on behalf of Arizona State …, priority 2015, dated 2018).

Assays:
COV318 = test: cell growth / viable cell count in ERBB4-overexpressing, BTK-negative cell line; format: cell-based, human
ERBB4 = ERBB4 (Homo sapiens, UniProt Q15303); test: radioactive kinase assay with purified kinase; format: biochemical; conditions: 1 uM, radioactive ATP (FIG. 3A)
Procedure: (§1) First, radioactive kinase assays were performed with purified protein kinases incubated with radioactive ATP and increasing concentrations of kinase inhibitors. The kinase activity was measured through the levels of radioactive phosphorylation present in each kinase.

OVSAHO = conditions: 1 uM, 7 days, Trypan blue exclusion, vs DMSO
HEC59 = test: cell growth / viable cell count in ERBB4-overexpressing, BTK-negative cell line; format: cell-based, human; design: % Survival: dose or concentration left out as unconfirmed
BTK = BTK (Homo sapiens, UniProt Q06187); conditions: 1 uM, radioactive ATP (FIG. 3A)
Procedure: as §1

OVKATE = conditions: 1 uM, 7 days, Trypan blue exclusion, vs DMSO
COV434 = conditions: 1 uM, 7 days, Trypan blue exclusion, vs DMSO
KLE = test: cell growth / viable cell count in ERBB4-overexpressing, BTK-negative cell line; format: cell-based, human; design: % Survival: dose or concentration left out as unconfirmed
H716 = test: as above; format: cell-based, human
1321N1 = test: as above; format: cell-based, human
YES1 = target: T1, YES1 (Homo sapiens, UniProt P07947); test: NAPPA array kinase autophosphorylation assay; format: biochemical; conditions: DMSO = 100
T1 construct: made in house; host or cells: human cell-free coupled transcription-translation (1-Step Human Coupled IVT), on the slide

H522 = test: cell growth / viable cell count in ERBB4-overexpressing, BTK-negative cell line; format: cell-based, human
H146 = test: as above; format: cell-based, human
HCK = target: T2, HCK (Homo sapiens, UniProt P08631); test: NAPPA array kinase autophosphorylation assay; format: biochemical; conditions: DMSO = 100
T2 construct: made in house; host or cells: human cell-free coupled transcription-translation (1-Step Human Coupled IVT), on the slide
Procedure: (§2) Protein microarrays were generated using NAPPA (Nucleic acid programmable protein array) methodology, which permits the use of freshly expressed proteins for functional assays (FIG. 1). In NAPPA, cDNAs coding for the target of interest are cloned into an expression vector, which generates a fusion (Halo Tag, GST, etc.) to the target, and spotted onto a glass slide. Then to each spot, a HeLa cell in vitro transcription-translation reagent is added, whereby the fusion gene is transcribed into mRNA and translated. The nascent proteins are captured to the slide with antibody to the fusion partner (i.e., HaloTag-ligand, α-GST antibody) that is spotted adjacent to the DNA during the manufacture of the array. This method allows for up to thousands of protein targets to be arrayed. NAPPA microarrays can be expressed using an in vitro transcription and translation system (IVTT), and the anti-tag antibody captures newly synthesized proteins. Following expression, the microarrays were treated with phosphatase to remove any phosphorylation that occurred during the expression of the proteins.
(§3) De-phosphorylated arrays were then incubated with kinase buffer containing various concentrations of ATP and/or kinase inhibitors. The kinase activity was measured as end point assay using anti-phopho tyrosine antibody linked to cy3 as the detecting agent (FIG. 2). The data was normalized using positive control features present in each array.
(§4) NAPPA kinase microarrays we generated with virtually all protein-tyrosine kinases from the human genome. The coding sequence for each tyrosine kinase was clone into an expression plasmid and immobilized on the microarray surface, with one protein kinase per feature. After the microarray was expressed, any phosphorylation that occurred during the expression step was removed by a treatment with lambda phosphatase.
(§5) Unphosphorylated microarrays were then incubated with a kinase buffer (25 mM Tris-HCl (pH 7.5), 5 mM beta-glycerophosphate, 2 mM dithiothreitol (DTT), 0.1 mM Na3VO4, 10 mM MgCl2) supplemented with […] and/or kinase inhibitors (concentration ranging from 0-10 uM). The kinase autophosphorylation activity was measured through the levels of phosphorylation present in each feature and was detected by phospho-tyrosine antibody. […] Staurosporine is a pan kinase inhibitor used as a control.
(§6) NAPPA arrays suitable for measuring the activity of protein kinases and evaluating the selectivity of kinase inhibitors were produced using a variation of the published protocol (Proteomics Clin Appl. 2013 June; 7(5-6):372-7.). Briefly, NAPPA printing mix was prepared with plasmid DNA coding for genes of interest, anti-flag antibody, cross-linker and poly-lysine. Samples were agitated for 90 minutes at 1200 rpm at RT and printed in quadruplicate in aminopropyltriethoxysilane coated glass slides.
(§7) Arrays were stored in an airtight container at room temperature until use.

FGFR1 = target: T3, FGFR1 (Homo sapiens, UniProt P11362); test: NAPPA array kinase autophosphorylation assay; format: biochemical; conditions: DMSO = 100
T3 construct: made in house; host or cells: human cell-free coupled transcription-translation (1-Step Human Coupled IVT), on the slide
Procedure: as §2, §3, §4, §5, §6, §7

ERBB4/HER4 = target: T4, ERBB4/HER4 (Homo sapiens, UniProt Q15303); test: NAPPA array kinase autophosphorylation assay; format: biochemical; conditions: DMSO = 100
T4 construct: made in house; host or cells: human cell-free coupled transcription-translation (1-Step Human Coupled IVT), on the slide
Procedure: as §2, §3, §4, §5, §6, §7

[1] = 0, 1 nM, 10 nM, 100 nM, 1 uM or 10 uM for 7 days
[2] = 1 uM, 7 days, Trypan blue exclusion, vs DMSO
[3] = percentage of viable cells after a 24-hour treatment of 1 nM ibrutinib

T1 sequence (P07947 whole entry): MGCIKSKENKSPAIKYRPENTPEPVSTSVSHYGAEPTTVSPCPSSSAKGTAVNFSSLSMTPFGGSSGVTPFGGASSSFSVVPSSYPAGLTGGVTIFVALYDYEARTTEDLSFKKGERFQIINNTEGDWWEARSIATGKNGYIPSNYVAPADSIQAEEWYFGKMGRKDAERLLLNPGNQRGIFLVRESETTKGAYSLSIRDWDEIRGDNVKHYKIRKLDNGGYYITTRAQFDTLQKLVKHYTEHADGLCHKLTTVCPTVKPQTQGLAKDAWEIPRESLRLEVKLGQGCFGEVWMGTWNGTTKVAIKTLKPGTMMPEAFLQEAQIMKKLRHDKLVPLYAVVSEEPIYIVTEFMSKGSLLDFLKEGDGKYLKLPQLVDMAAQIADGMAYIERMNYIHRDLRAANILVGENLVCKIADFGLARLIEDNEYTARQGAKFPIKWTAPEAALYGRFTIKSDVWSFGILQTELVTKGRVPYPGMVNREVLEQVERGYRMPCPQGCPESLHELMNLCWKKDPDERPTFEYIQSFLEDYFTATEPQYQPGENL
T2 sequence (P08631 whole entry): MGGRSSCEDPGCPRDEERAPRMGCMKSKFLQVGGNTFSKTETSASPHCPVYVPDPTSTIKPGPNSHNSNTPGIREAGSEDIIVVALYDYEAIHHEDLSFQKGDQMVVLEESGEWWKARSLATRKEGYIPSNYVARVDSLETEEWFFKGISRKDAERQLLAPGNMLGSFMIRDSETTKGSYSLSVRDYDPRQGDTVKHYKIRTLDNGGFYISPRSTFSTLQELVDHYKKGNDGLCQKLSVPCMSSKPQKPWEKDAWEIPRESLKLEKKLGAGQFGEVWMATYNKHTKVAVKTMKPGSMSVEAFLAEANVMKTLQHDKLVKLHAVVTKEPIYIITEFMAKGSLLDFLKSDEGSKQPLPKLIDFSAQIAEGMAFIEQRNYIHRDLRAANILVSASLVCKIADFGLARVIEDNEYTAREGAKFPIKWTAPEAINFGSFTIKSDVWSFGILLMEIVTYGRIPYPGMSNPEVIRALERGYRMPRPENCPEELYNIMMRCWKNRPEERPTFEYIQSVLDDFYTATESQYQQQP
T4 sequence (Q15303 26-1308): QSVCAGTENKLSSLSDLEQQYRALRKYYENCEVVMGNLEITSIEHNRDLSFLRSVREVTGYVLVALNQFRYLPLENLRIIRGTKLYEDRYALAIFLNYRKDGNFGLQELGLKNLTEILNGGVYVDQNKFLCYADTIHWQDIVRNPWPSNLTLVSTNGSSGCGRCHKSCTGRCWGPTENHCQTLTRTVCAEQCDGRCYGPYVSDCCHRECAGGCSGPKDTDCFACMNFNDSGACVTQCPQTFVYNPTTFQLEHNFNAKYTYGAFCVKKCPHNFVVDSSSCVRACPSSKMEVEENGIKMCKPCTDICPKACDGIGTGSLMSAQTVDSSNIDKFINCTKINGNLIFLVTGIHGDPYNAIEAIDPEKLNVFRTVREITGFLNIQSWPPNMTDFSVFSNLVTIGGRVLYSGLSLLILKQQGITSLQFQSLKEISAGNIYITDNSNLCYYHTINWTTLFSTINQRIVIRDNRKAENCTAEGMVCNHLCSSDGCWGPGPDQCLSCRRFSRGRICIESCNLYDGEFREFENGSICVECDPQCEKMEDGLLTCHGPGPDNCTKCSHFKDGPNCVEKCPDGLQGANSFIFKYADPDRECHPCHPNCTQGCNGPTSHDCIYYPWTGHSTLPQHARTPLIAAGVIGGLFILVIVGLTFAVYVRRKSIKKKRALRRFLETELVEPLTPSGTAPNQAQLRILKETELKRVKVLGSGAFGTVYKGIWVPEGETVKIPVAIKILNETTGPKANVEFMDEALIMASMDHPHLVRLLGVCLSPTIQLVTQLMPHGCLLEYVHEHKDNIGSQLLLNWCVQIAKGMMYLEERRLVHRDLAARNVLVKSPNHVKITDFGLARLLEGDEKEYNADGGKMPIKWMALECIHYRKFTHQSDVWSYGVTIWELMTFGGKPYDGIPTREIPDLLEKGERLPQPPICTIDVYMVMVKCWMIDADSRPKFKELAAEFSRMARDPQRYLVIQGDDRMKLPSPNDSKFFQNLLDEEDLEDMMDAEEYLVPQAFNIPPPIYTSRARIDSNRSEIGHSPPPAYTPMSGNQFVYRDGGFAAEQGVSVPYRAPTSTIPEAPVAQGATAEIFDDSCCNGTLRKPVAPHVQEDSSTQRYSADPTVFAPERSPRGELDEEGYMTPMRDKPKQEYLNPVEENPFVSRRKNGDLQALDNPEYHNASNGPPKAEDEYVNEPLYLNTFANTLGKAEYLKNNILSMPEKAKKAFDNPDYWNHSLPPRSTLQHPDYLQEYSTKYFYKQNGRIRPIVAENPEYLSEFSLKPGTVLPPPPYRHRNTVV
T3 sequence (P11362 22-822): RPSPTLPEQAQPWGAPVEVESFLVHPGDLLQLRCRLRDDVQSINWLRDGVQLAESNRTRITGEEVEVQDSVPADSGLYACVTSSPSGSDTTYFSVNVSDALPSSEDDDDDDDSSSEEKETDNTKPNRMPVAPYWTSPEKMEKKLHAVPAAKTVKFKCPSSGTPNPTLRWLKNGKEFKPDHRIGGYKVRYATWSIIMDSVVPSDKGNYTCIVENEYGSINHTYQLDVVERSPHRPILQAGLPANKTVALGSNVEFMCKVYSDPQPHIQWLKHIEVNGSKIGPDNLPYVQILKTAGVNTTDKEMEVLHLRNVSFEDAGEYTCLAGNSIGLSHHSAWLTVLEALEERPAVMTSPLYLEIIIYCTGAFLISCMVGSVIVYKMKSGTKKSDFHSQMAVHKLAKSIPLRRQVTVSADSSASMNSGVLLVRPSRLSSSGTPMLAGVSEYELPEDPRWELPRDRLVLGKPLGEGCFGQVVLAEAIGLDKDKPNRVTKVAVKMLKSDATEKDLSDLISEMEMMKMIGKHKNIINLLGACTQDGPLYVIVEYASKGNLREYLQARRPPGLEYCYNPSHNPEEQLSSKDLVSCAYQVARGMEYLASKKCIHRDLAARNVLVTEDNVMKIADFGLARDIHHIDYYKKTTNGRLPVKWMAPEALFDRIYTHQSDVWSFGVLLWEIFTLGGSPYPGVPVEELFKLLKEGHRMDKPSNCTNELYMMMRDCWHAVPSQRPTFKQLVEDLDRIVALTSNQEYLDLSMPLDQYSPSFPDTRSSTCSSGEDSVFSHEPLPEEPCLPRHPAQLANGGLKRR
Chain of BTK (Q06187 whole entry): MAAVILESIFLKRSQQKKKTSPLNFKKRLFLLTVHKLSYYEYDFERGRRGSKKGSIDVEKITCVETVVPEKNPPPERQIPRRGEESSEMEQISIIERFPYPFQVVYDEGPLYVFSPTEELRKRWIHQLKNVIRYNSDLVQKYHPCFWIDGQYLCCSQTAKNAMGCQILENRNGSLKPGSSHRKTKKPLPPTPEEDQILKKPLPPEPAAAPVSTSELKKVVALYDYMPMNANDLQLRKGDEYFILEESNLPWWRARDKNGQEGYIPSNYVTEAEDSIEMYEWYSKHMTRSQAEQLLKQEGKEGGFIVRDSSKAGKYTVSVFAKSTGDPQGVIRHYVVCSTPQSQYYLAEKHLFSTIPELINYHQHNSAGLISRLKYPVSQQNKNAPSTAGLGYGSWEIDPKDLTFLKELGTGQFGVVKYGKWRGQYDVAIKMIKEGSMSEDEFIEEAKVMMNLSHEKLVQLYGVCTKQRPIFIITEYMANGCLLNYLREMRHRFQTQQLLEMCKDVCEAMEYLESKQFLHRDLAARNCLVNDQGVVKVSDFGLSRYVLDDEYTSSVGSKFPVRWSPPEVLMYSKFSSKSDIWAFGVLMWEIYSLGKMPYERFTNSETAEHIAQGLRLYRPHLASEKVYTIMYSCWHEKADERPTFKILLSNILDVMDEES
Chain of ERBB4 (Q15303 26-1308): as the sequence (Q15303 26-1308) above

Q: Which results are given for Ibrutinib?
A: sensitivity of cell line (COV318; [1]): apparently resistant; growth inhibition rate (COV318; [2]): 8%; % Survival (COV318; [3]): 91.5%; activity inhibited (ERBB4): more than 80%; growth inhibition rate (OVSAHO): 37%; growth inhibition rate (HEC59; HEC59, 1 uM, 7 days, Trypan blue exclusion, vs DMSO): 31%; % Survival (HEC59; HEC59, percentage of viable cells): 68.8%; sensitivity of cell line (HEC59; Hec59, 0, 1 nM, 10 nM, 100 nM, 1 uM or 10 uM for 7 days): apparently resistant; activity inhibited (BTK): more than 80%; growth inhibition rate (OVKATE): 45%; growth inhibition rate (COV434): 15%; sensitivity of cell line (KLE; [1]): very sensitive; growth inhibition rate (KLE; [2]): 73%; % Survival (KLE; percentage of viable cells after ibrutinib): 27.2%; sensitivity of cell line (H716; [1]): very sensitive; growth inhibition rate (H716; [2]): 75%; % Survival (H716; [3]): 25.5%; sensitivity of cell line (1321N1; [1]): apparently resistant; growth inhibition rate (1321N1; [2]): 10%; % Survival (1321N1; [3]): 89.7%; kinase activity (%) (YES1; 0.1 uM Ibrutinib): 99.3%; kinase activity (%) (YES1; 1 uM Ibrutinib): 90.9%; sensitivity of cell line (H522; [1]): very sensitive; growth inhibition rate (H522; [2]): 60%; % Survival (H522; [3]): 41.0%; growth inhibition rate (H146; H146, 1 uM, 7 days, Trypan blue exclusion, vs DMSO): 0%; % Survival (H146; H146, percentage of viable cells after a 24-hour treatment of 1 nM ibrutinib): 100.0%; sensitivity of cell line (H146; H416, 0, 1 nM, 10 nM, 100 nM, 1 uM or 10 uM for 7 days): apparently resistant; kinase activity (%) (HCK; 0.1 uM Ibrutinib): 102.1%; kinase activity (%) (HCK; 1 uM Ibrutinib): 105.0%; kinase activity (%) (FGFR1; 0.1 uM Ibrutinib): 98.8%; kinase activity (%) (FGFR1; 1 uM Ibrutinib): 105.8%; kinase activity (%) (ERBB4/HER4; 0.1 uM Ibrutinib): 67.1%; kinase activity (%) (ERBB4/HER4; 1 uM Ibrutinib): 44.1%
